Entries after “also recorded” stand apart in the source; their conditions may differ.
Tests used:
[1] = tested on: HeLa cells; test: Fixed cell analysis of mitotic phenotypes (fluorescence / immunofluorescence); assay type: cell-based, human; settings: 40 µM, 24 h
Protocol: For fixed cell analysis, HeLa or H2B-GFP/mRFP-αTubulin HeLa cells were grown on glass coverslips and treated as described above. Cells were fixed in ice cold methanol and mounted in Mowiol. Alternatively, non fluorescent HeLa were treated and subjected to immunofluorescence with anti-tubulin antibodies (Sigma, DM1A) and Hoechst to stain the DNA. Cells were observed on a Leica DM16000B microscope with the HCX PL APO CS 63x 1.4 objective. Images were taken with a Leica DFC 350FX camera, controlled by Leica Application Suit (LAS-AF 6000) software and processed with Adobe Photoshop.
To get a better idea about the defects causing cell division failure in cells treated with (C), we examined fixed cells to better visualize the chromosomes and the microtubules. […] In parallel, standard HeLa cells were treated in the same way. The cells were fixed and processed for immunofluorescence with anti-tubulin antibodies to visualize the microtubules and Hoechst to stain the DNA.

[2] = tested on: hTERT-RPE1 cells; test: Cilia disassembly assay; assay type: cell-based; settings: pretreatment 40 µM, serum stimulation after 48 h starvation
Protocol: Cilia assembly and disassembly assays were performed as described in Pugacheva et al., Cell 2007, 129, 1351-1363. […] For analysis of cilia disassembly, cilia were assembled by 48 h starvation in Opti-MEM, and disassembled by incubation in DMEM-10% serum. Cells were fixed after 2 and 4 h. […] To visualize the centrosomes and the cilia, fixed cells were immunostained with anti-γ-tubulin (Sigma GTU88) and anti-acetylated-tubulin (Sigma), and DNA was stained with Hoechst.

## CC(C)Nc1nc(-c2ccco2)nc2ccc(C#CCO)cc12 [Compound (C), 3-(2-(Furan-2-yl)-4-(isoiproipylamino)quinazolin-6-yl)prop-2-yn-l-ol]
[1]
  mitotic phenotype of fixed cells: increased formation of multipolar spindles and other abnormal mitotic structures; also recorded: large proportion of abnormal mitotic spindles
[2]
  cilia disassembly: strongly inhibited; also recorded: impaired
